According to ChEMBL document CHEMBL3576804, “Novel Potent Orthosteric Antagonist of ASIC1a Prevents NMDAR-Dependent LTP Induction” (J Med Chem, 2015):
Calls of active or inactive are those of the source. No cut-off for these calls is given here.

Experiments:
Type in all cases: cell-based
[1] = molecular target: T1, Acid-sensing ion channel 1 (Homo sapiens) (UniProt P78348); test: Inhibition of human ASIC1a endogenously expressed in HEK293 cells clamped at -100 mV gated ionic current at 10 uM in presence of cellular membrane depolarization by standard whole cell patch clamp assay
T1 sequence (whole entry): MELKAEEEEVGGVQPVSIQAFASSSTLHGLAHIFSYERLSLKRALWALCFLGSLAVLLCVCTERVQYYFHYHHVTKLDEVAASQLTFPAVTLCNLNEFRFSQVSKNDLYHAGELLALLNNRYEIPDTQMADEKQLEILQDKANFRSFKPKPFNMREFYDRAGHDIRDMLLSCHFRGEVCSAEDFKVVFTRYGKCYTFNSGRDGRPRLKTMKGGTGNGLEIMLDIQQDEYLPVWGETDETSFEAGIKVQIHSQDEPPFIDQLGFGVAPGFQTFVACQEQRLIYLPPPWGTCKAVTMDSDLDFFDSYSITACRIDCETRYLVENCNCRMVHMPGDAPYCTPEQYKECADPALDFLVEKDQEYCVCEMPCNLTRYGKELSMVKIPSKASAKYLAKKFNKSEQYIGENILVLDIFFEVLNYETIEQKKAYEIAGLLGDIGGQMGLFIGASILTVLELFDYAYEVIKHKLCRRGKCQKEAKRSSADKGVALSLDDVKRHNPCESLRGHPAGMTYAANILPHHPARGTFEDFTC

[2] = molecular target: T1, Acid-sensing ion channel 1 (Homo sapiens); test: Inhibition of human ASIC1a endogenously expressed in HEK293 cells clamped at -20 mV gated ionic current at 10 uM by standard whole cell patch clamp assay
[3] = molecular target: T1, Acid-sensing ion channel 1 (Homo sapiens); test: Inhibition of human ASIC1a endogenously expressed in HEK293 cells clamped at -100 mV gated ionic current at 10 uM by standard whole cell patch clamp assay
[4] = molecular target: T1, Acid-sensing ion channel 1 (Homo sapiens); test: Inhibition of human ASIC1a endogenously expressed in HEK293 cells clamped at -100 mV gated ionic current at 100 uM at pH 6.7 by standard whole cell patch clamp assay
[5] = molecular target: T1, Acid-sensing ion channel 1 (Homo sapiens); test: Inhibition of human ASIC1a endogenously expressed in HEK293 cells clamped at -100 mV gated ionic current at 100 uM at pH 5.0 by standard whole cell patch clamp assay
[6] = molecular target: T1, Acid-sensing ion channel 1 (Homo sapiens); test: Inhibition of human ASIC1a endogenously expressed in HEK293 cells clamped at -100 mV gated ionic current at 100 nM at pH 5.0 by standard whole cell patch clamp assay
[7] = molecular target: T1, Acid-sensing ion channel 1 (Homo sapiens); test: Inhibition of human ASIC1a endogenously expressed in HEK293 cells clamped at -100 mV gated ionic current at 100 nM at pH 6.7 by standard whole cell patch clamp assay
[8] = molecular target: T1, Acid-sensing ion channel 1 (Homo sapiens); test: Inhibition of human ASIC1a endogenously expressed in HEK293 cells clamped at -100 mV gated ionic current at 10 uM at pH 6.7 by standard whole cell patch clamp assay
[9] = molecular target: T1, Acid-sensing ion channel 1 (Homo sapiens); test: Reversible inhibition of human ASIC1a endogenously expressed in HEK293 cells clamped at -100 mV gated ionic current at 100 nM to 100 uM at pH 6.7 by standard whole cell patch clamp assay
[10] = molecular target: T1, Acid-sensing ion channel 1 (Homo sapiens); test: Inhibition of human ASIC1a endogenously expressed in HEK293 cells clamped at -100 mV gated ionic current at 10 uM at pH 5.0 by standard whole cell patch clamp assay
[11] = molecular target: T1, Acid-sensing ion channel 1 (Homo sapiens); test: Reversible inhibition of human ASIC1a endogenously expressed in HEK293 cells clamped at -100 mV gated ionic current at 100 nM to 100 uM at pH 5.0 by standard whole cell patch clamp assay

Row | SMILES | inhibition [1] | inhibition [2] [%] | inhibition [3] [%] | inhibition [4] [%] | inhibition [5] [%] | inhibition [6] [%] | inhibition [7] [%] | inhibition [8] [%] | inhibition [9] | inhibition [10] [%] | inhibition [11]
1 | N=C(N)NC(=O)c1nc(Cl)c(N)nc1N | inactive | 60.7 | 41.3 |  |  |  |  |  |  |  | 
2 | CCN(CC)c1ccc2cc(C(=N)N)c(=O)oc2c1 |  |  |  | 49 | 41 |  |  |  |  |  | 
3 | CCN(CC)CCN(Cc1ccccc1)c1ccc2cc(C(=N)N)c(=O)oc2c1 |  |  |  | 3.7 | 28.8 | 96.1 | 68.9 | 22.1 | Active | 65.7 | Active
